{
  "source": "patent US9834563B2",
  "about": "(Merck Sharp & Dohme Corp., priority 2013, dated 2017)",
  "format_in_all_cases": "cell-based",
  "key": {"[1]": {"biological_target": "T1, Human GPR40 (Homo sapiens, UniProt O14842)", "T1 sequence (O14842 whole entry)": "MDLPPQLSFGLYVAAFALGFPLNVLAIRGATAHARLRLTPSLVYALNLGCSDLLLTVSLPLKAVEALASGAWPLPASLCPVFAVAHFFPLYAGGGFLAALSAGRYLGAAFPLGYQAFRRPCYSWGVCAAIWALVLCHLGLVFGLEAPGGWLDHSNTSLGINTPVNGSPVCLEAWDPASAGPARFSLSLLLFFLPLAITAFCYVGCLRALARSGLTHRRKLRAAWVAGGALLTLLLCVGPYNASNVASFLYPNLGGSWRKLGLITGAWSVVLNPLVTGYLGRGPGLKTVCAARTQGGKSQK", "assay": "Inositol phosphate turnover (IP1) assay in HEK cells stably expressing human GPR40", "conditions": "HEK cells stably expressing human GPR40, 3H-inositol labeling, 60 min compound incubation", "description": "(§1) Human and mouse GPR40 stable cell-lines were generated in CHO cells stably expressing NFAT BLA (Beta-lactamase). A human GPR40 stable cell-line was generated in HEK cells stably expressing the aequorin expressing reporter. The expression plasmids were transfected using lipofectamine, LIFE TECHNOLOGIES (Carlsbad, Calif.), following manufacturer's instructions. Stable cell-lines were generated following drug selection.\n(§2) The assay is performed in a 96-well format. HEK cells stably expressing human GPR40 are plated to be 60-80% confluent within 72 h. After 72 h, the plates are aspirated and the cells washed with inositol-free DMEM (ICN). The wash media is replaced with 150 μL of 3H-inositol labeling media (inositol-free media containing 0.4% human albumin or 0.4% mouse albumin, 1× pen/strep antibiotics, glutamine, 25 mM HEPES to which is added 3H-myo-inositol NEN #NET114A 1 mCi/mL, 25 Ci/mmol diluted 1:150 in loading media with a final specific radioactivity of 1 μCi/150 μL). Alternatively, the human and mouse albumin can be added after the overnight labeling step before the addition of LiCl.\nThe assay is typically run the next day after 18 h labeling. On the day of the assay, 5 μL of 300 mM LiCl is added to all wells and incubated at 37 degrees for 20 min. […] Beads are allowed to settle and the plates are counted in the Wallac MICROBETA instrument. […]"}, "[2]": {"biological_target": "T1, Human GPR40", "assay": "FLIPR assay: agonist-induced calcium mobilization in GPR40/CHO NFAT BLA cells", "design": "expressed in transfected cells; host or cells: CHO cells stably expressing NFAT BLA (beta-lactamase)", "excerpt": "as §1\nFLIPR (Fluorimetric Imaging Plate Reader, Molecular Devices) assays were performed to measure agonist-induced calcium mobilization of the stable clones. For the FLIPR assay, one day before assay, GPR40/CHO NFAT BLA cells were seeded into black-wall-clear-bottom 384-well plates (Costar) at 1.4×10e4 cells/20 μL medium/well. The cells were incubated with 20 μl/well of the assay buffer (HBSS, 0.1% BSA, 20 mM HEPES, 2.5 mM probenecid, pH 7.4) containing 8 μM fluo-4, AM, 0.08% pluronic acid at room temperature for 100 minutes. Fluorescence output was measured using FLIPR. Compounds were dissolved in DMSO and diluted to desired concentrations with assay buffer. 13.3 μL/well of compound solution was added. The activities of the compounds in the examples have EC50 (effective concentration of compound to afford 50% of the maximum observed fluorescence) values listed in Table I."}, "[3]": {"biological_target": "T1, Human GPR40", "assay": "Inositol phosphate turnover (IP1) assay in HEK cells stably expressing human GPR40", "design": "expressed in transfected cells", "conditions": "HEK cells stably expressing human GPR40, 3H-inositol labeling, 60 min compound incubation", "description": "as §1, §2\nThe assay is typically run the next day after 18 h labeling. On the day of the assay, 5 μL of 300 mM LiCl is added to all wells and incubated at 37 degrees for 20 min. 0.75 μL of 200× compounds are added and incubated with the cells for 60 min at 37 degrees. The media is then aspirated off and the assay terminated with the addition of 60 μL 10 mM formic acid. The cells are lysed for 60 min at room temperature. 15-30 μL of lysate is mixed with 70 μL/1 mg YSi SPA beads AMERSHAM (United Kingdom) in clear bottom Isoplates. The plates are shaken for 2 h at room temperature. Beads are allowed to settle and the plates are counted in the Wallac MICROBETA instrument. The activities of the compounds in the examples have EC50 (effective concentration of compound to afford 50% of the maximum observed […]) values listed in Table I."}},
  "data": [
    {"smiles": "CS(=O)(=O)CCCOc1ncc(-c2ccc(F)c(COc3ccc4c(c3)C[C@H]3[C@H](C(=O)O)[C@@H]43)c2)c(C(F)(F)F)n1", "note": "[Example 33]", "values": [
      {"measurement": "EC50", "setting": "[1]", "value": 6.5, "unit": "nM"},
      {"measurement": "EC50", "setting": "[2]", "value": 30.7, "unit": "nM"}
    ]},
    {"smiles": "Cc1nc(OCC2CCC[C@H](O)[C@@H]2O)ccc1-c1ccc(F)c(COc2ccc3c(c2)C[C@H]2[C@H](C(=O)O)[C@@H]32)c1", "note": "(stereo partly drawn) [Example 27, (1S,1aS,6aR)-4-((5-(6-(((2R,3S)-2,3-dihydroxycyclohexyl)methoxy)-2-methylpyridin-3-yl)-2-fluorobenzyl)oxy)-1,1a,6,6a-tetrahydrocyclopropa[a]indene-1-carboxylic acid]", "values": [
      {"measurement": "EC50", "setting": "[2]", "value": 48.9, "unit": "nM"},
      {"measurement": "EC50", "setting": "[3]", "value": 10, "unit": "nM"}
    ]},
    {"smiles": "Cc1nc(OCCCN2CCCC2=O)ccc1-c1ccc(F)c(COc2ccc3c(c2)C[C@H]2[C@H](C(=O)O)[C@@H]32)c1", "note": "[Example 36, (1S,1aS,6aR)-4-((2-fluoro-5-(2-methyl-6-(3-(2-oxopyrrolidin-1-yl)propoxy)pyridin-3-yl)benzyl)oxy)-1,1a,6,6a-tetrahydrocyclo-propa[a]indene-1-carboxylic acid]", "values": [
      {"measurement": "EC50", "setting": "[2]", "value": 19.9, "unit": "nM"},
      {"measurement": "EC50", "setting": "[3]", "value": 20.5, "unit": "nM"}
    ]},
    {"smiles": "Cc1nc(N2CCC(C(F)(F)F)CC2)ccc1-c1ccc(F)c(COc2ccc3c(c2)C[C@H]2[C@H](C(=O)O)[C@@H]32)c1", "note": "[Example 42, (1S,1aS,6aR)-4-((2-fluoro-5-(2-methyl-6-(4-(trifluoromethyl)piperidin-1-yl)pyridin-3-yl)benzyl)oxy)-1,1a,6,6a-tetrahydrocyclopropa[a]indene-1-carboxylic acid]", "values": [
      {"measurement": "EC50", "setting": "[2]", "value": 12.8, "unit": "nM"},
      {"measurement": "EC50", "setting": "[3]", "value": 51, "unit": "nM"}
    ]},
    {"smiles": "Cc1nc(OCCCS(C)(=O)=O)ccc1-c1ccc(F)c(COc2ccc3c(c2)C[C@H]2[C@H](C(=O)O)[C@@H]32)c1F", "note": "[Example 20, 4-(2,6-Difluoro-3-[6-(3-methanesulfonyl-propoxy)-2-methyl-pyridin-3-yl]-benzyloxy)-1,1a,6,6a-tetrahydro-cyclopropa[a]indene-1-carboxylic acid]", "values": [
      {"measurement": "EC50", "setting": "[2]", "value": 179, "unit": "nM"},
      {"measurement": "EC50", "setting": "[3]", "value": 51.5, "unit": "nM"}
    ]},
    {"smiles": "Cc1nc(N2CCN(S(C)(=O)=O)CC2)ccc1-c1cccc(COc2ccc3c(c2)C[C@H]2[C@H](C(=O)O)[C@@H]32)c1", "note": "[Example 48]", "values": [
      {"measurement": "EC50", "setting": "[1]", "value": 38.5, "unit": "nM"},
      {"measurement": "EC50", "setting": "[2]", "value": 76.7, "unit": "nM"}
    ]},
    {"smiles": "Cc1cc(OCCCS(C)(=O)=O)nc(C)c1-c1ccc(F)c(COc2ccc3c(c2)C[C@H]2[C@H](C(=O)O)[C@@H]32)c1", "note": "[Example 6, 4-{2-Fluoro-5-[6-(3-methanesulfonyl-propoxy)-2,4-dimethyl-pyridin-3-yl]-benzyloxy}-1,1a,6,6a-tetrahydro-cyclopropa[a]indene-1-carboxylic acid]", "values": [
      {"measurement": "EC50", "setting": "[2]", "value": 57.4, "unit": "nM"},
      {"measurement": "EC50", "setting": "[3]", "value": 22.3, "unit": "nM"}
    ]},
    {"smiles": "Cc1nc(N2CCC3(C=Cc4ccccc43)CC2)ccc1-c1ccc(F)c(COc2ccc3c(c2)C[C@H]2[C@H](C(=O)O)[C@@H]32)c1", "note": "[Example 40]", "values": [
      {"measurement": "EC50", "setting": "[2]", "value": 32, "unit": "nM"},
      {"measurement": "EC50", "setting": "[3]", "value": 519, "unit": "nM"}
    ]},
    {"smiles": "Cc1nc(OC2CCC(C(C)(C)O)CC2)ccc1-c1ccc(F)c(COc2ccc3c(c2)C[C@H]2[C@H](C(=O)O)[C@@H]32)c1", "note": "(stereo partly drawn) [Example 38, (1S,1aS,6aR)-4-((2-fluoro-5-(6-((4-(2-hydroxypropan-2-yl)cyclohexyl)oxy)-2-methylpyridin-3-yl)benzyl)oxy)-1,1a,6,6a-tetrahydro-cyclopropa[a]indene-1-carboxylic acid]", "values": [
      {"measurement": "EC50", "setting": "[2]", "value": 74.1, "unit": "nM"},
      {"measurement": "EC50", "setting": "[3]", "value": 80.8, "unit": "nM"}
    ]},
    {"smiles": "Cc1nc(N2CCC(CNS(C)(=O)=O)C2)ccc1-c1ccc(F)c(COc2ccc3c(c2)C[C@H]2[C@H](C(=O)O)[C@@H]32)c1", "note": "(stereo partly drawn) [Example 47, (1S,1aS,6aR)-4-((2-fluoro-5-(2-methyl-6-(3-(methylsulfonamidomethyl)pyrrolidin-1-yl)pyridin-3-yl)benzyl)oxy)-1,1a,6,6a-tetrahydrocyclopropa[a]indene-1-carboxylic acid]", "values": [
      {"measurement": "EC50", "setting": "[2]", "value": 17.8, "unit": "nM"},
      {"measurement": "EC50", "setting": "[3]", "value": 16, "unit": "nM"}
    ]},
    {"smiles": "Cc1nc(OCCCC2(O)CC2)ccc1-c1ccc(F)c(COc2ccc3c(c2)C[C@H]2[C@H](C(=O)O)[C@@H]32)c1", "note": "[Example 37, (1S,1aS,6aR)-4-((2-fluoro-5-(6-(3-(1-hydroxycyclopropyl)propoxy)-2-methylpyridin-3-yl)benzyl)oxy)-1,1a,6,6a-tetrahydrocyclopropa[a]indene-1-carboxylic acid]", "values": [
      {"measurement": "EC50", "setting": "[2]", "value": 16.6, "unit": "nM"},
      {"measurement": "EC50", "setting": "[3]", "value": 14.7, "unit": "nM"}
    ]},
    {"smiles": "Cc1nc(OCC2CCOCC2)ccc1-c1ccc(F)c(COc2ccc3c(c2)C[C@H]2[C@H](C(=O)O)[C@@H]32)c1", "note": "[Example 28, (1S,1aS,6aR)-4-((2-fluoro-5-(2-methyl-6-((tetrahydro-2H-pyran-4-yl)methoxy)pyridin-3-yl)benzyl)oxy)-1,1a,6,6a-tetrahydrocyclopropa[a]indene-1-carboxylic acid]", "values": [
      {"measurement": "EC50", "setting": "[2]", "value": 18.5, "unit": "nM"},
      {"measurement": "EC50", "setting": "[3]", "value": 8, "unit": "nM"}
    ]},
    {"smiles": "O=C(O)[C@H]1[C@@H]2Cc3cc(OCc4cc(-c5cnc(NCC6CCOCC6)cc5C(F)(F)F)ccc4F)ccc3[C@@H]21", "note": "[Example 55, (1S,1aS,6aR)-4-((2-fluoro-5-(6-(((tetrahydro-2H-pyran-4-yl)methyl)amino)-4-(trifluoromethyl)pyridin-3-yl)benzyl)oxy)-1,1a,6,6a-tetrahydrocyclopropa[a]indene-1-carboxylic acid]", "values": [
      {"measurement": "EC50", "setting": "[2]", "value": 35.4, "unit": "nM"},
      {"measurement": "EC50", "setting": "[3]", "value": 5.5, "unit": "nM"}
    ]},
    {"smiles": "Cc1ccc(COc2ccc3c(c2)C[C@H]2[C@H](C(=O)O)[C@@H]32)cc1-c1cnc2c(ccn2CCCS(C)(=O)=O)c1", "note": "[Example 23, (1S,1aS,6aR)-4-((4-methyl-3-(1-(3-(methylsulfonyl)propyl)-1H-pyrrolo[2,3-b]pyridin-5-yl)benzyl)oxy)-1,1a,6,6a-tetrahydrocyclopropa[a]indene-1-carboxylic acid]", "values": [
      {"measurement": "EC50", "setting": "[2]", "value": 74.2, "unit": "nM"},
      {"measurement": "EC50", "setting": "[3]", "value": 84.5, "unit": "nM"}
    ]},
    {"smiles": "Cc1nc(OCCCS(C)(=O)=O)ccc1-c1ccc(F)c(COc2ccc3c(c2)C[C@H]2[C@H](C(=O)O)[C@@H]32)c1", "note": "[Example 1, (1S,1aS,6aR)-4-[(2-fluoro-5-{2-methyl-6-[3-(methylsulfonyl)propoxy]pyridin-3-yl}benyzyl)oxy]-1,1a,6,6a-tetrahydrocyclopropa[a]indene-1-carboxylic acid]", "values": [
      {"measurement": "EC50", "setting": "[2]", "value": 46, "unit": "nM"},
      {"measurement": "EC50", "setting": "[3]", "value": 7.3, "unit": "nM"}
    ]},
    {"smiles": "Cc1nc(OC2CCN(S(C)(=O)=O)CC2)ccc1-c1ccc(F)c(COc2ccc3c(c2)C[C@H]2[C@H](C(=O)O)[C@@H]32)c1", "note": "[Example 49, (1S,1aS,6aR)-4-((2-fluoro-5-(2-methyl-6-((1-(methylsulfonyl)piperidin-4-yl)oxy)pyridin-3-yl)benzyl)oxy)-1,1a,6,6a-tetrahydrocyclopropa[a]indene-1-carboxylic acid]", "values": [
      {"measurement": "EC50", "setting": "[2]", "value": 28.9, "unit": "nM"},
      {"measurement": "EC50", "setting": "[3]", "value": 19.5, "unit": "nM"}
    ]},
    {"smiles": "Cc1cc(OCCC2(O)COC2)ncc1-c1ccc(F)c(COc2ccc3c(c2)C[C@H]2[C@H](C(=O)O)[C@@H]32)c1", "note": "[Example 30, (1S,1aS,6aR)-4-((2-fluoro-5-(6-(2-(3-hydroxyoxetan-3-yl)ethoxy)-4-methylpyridin-3-yl)benzyl)oxy)-1,1a,6,6a-tetrahydro-cyclopropa[a]indene-1-carboxylic acid]", "values": [
      {"measurement": "EC50", "setting": "[2]", "value": 49.2, "unit": "nM"},
      {"measurement": "EC50", "setting": "[3]", "value": 30, "unit": "nM"}
    ]},
    {"smiles": "CS(=O)(=O)CCCOc1cc(C(F)(F)F)c(-c2ccc(F)c(COc3ccc4c(c3)C[C@H]3[C@H](C(=O)O)[C@@H]43)c2)cn1", "note": "[Example 32, (1S,1aS,6aR)-4-((2-fluoro-5-(6-(3-(methylsulfonyl)propoxy)-4-(trifluoromethyl)pyridin-3-yl)benzyl)oxy)-1,1a,6,6a-tetrahydrocyclopropa[a]indene-1-carboxylic acid]", "values": [
      {"measurement": "EC50", "setting": "[2]", "value": 20.6, "unit": "nM"},
      {"measurement": "EC50", "setting": "[3]", "value": 5, "unit": "nM"}
    ]}
  ]
}
